The results in this text go back to the RepoRT retention time repository (doi:10.1007/s00216-013-6954-6).

Series [1] is described as follows: RP, Waters ACQUITY UPLC HSS T3, 150 × 2.1 mm, 1.8 µm; A: water + 0.1% formic acid; B: acetonitrile + 0.1% formic acid; gradient (min/%B) 0/5 1/5 16/95 18/95. As to conditions: stereoisomer not certain.
The nature of series [2]: RP, Waters ACQUITY UPLC HSS T3, 100 × 1 mm, 1.8 µm; A: water + 0.1% formic acid, pH 3; B: acetonitrile + 0.1% formic acid, pH 3; gradient (min/%B) 0/5 1/5 16/95 18/95 20/5. As to conditions: stereoisomer not certain.

`CC(C)C(N)C(=O)NC(Cc1ccccc1)C(=O)O` (stereo not given): the LC retention time in series [1] worked out at 3.3 min.
Turning to `NC(Cc1ccccc1)C(=O)NCC(=O)O` (stereo not drawn) [H-Phe-Gly-OH], the LC retention time in series [2] came to 1.7 min.
Still for that read-out and setting: under `O=C(O)Cc1ccccc1` [Phenylacetic acid] stands 3.6 min.
Regarding `Nc1ncnc2nc[nH]c12`, the LC retention time in series [1] came to 0.525 min.
`CC(C)CC(NC(=O)C(N)Cc1ccc(O)cc1)C(=O)O` (stereo not given): the LC retention time in series [1] is 3.2 min.
For `O=C(O)C1Cc2c([nH]c3ccccc23)CN1` (stereo not given) [3-Carboxy-1,2,3,4-tetrahydro-2-carboline], the LC retention time in series [2] stood at 3.1 min.
Take `CC(C)CC(N)C(=O)NC(Cc1ccccc1)C(=O)O` (stereo not given): in series [1], the LC retention time turned out to be 4.2 min.
In the case of `CS(=O)CCCCCCCCN=C=S` (stereo not drawn) [8-MeSO-Octyl-NCS], the LC retention time in series [2] was 8.1 min.
With `CSCCC(N)C(=O)O` (stereo not given) [Methionine], the LC retention time in series [2] was 0.643 min.
On the same count and under the same terms, under `CC12CCC(=O)C=C1CCC1C2C(O)CC2(C)C1CCC2(O)C(=O)CO` (stereo not given) [hydrocortisone, cortisol] stands 6.56 min.
Still for that read-out and setting: under `COn1cc(CN)c2ccccc21` [1-MeO-I3CH2NH2] stands 3.7 min.
For the molecule `O=Cc1c[nH]c2ccccc12`, the LC retention time in series [1] amounted to 4.8 min.
Take `CCC(C)C(N)C(=O)NC(C(=O)O)C(C)CC` (stereo not given): the LC retention time in series [1] worked out at 3.1 min.
The same measure, in the same setting: under `CC12CCC(=O)C=C1CCC1C2C(O)CC2(C)C1CCC2(O)C(=O)CO` (stereo not given) stands 6.56 min.
Regarding `CC(CCC(=O)O)C1CCC2C3CCC4CC(O)CCC4(C)C3CC(O)C12C` (stereo not given), the LC retention time in series [1] was found to be 10.7 min.
On the same count and under the same terms, in the case of `CC(CCC(=O)O)C1CCC2C3C(O)CC4CC(O)CCC4(C)C3CC(O)C12C` (stereo not given) it was 8.94 min; in that of `CC(C)CC(N)C(=O)O` (stereo not given), 0.795 min; in that of `COn1cc(CN)c2ccccc21`, 3.7 min.
In the case of `CCC(C)C(NC(=O)C(N)Cc1ccccc1)C(=O)O` (stereo not given), the LC retention time in series [1] is 3.8 min.
On the same count and under the same terms, in the case of `O=C(O)CCCCCCCC(=O)O` it was 5.35 min; in that of `CC(C)CC(N)C(=O)N1CCCC1C(=O)O` (stereo not given), 2.62 min.
On the same count and under the same terms, in the case of `O=c1[nH]c(=O)c2[nH]c(=O)[nH]c2[nH]1` it was 0.643 min.
With `NCCS(=O)(=O)O`, the LC retention time in series [1] was 0.446 min.
With `CC(C)C(NC(=O)C(N)Cc1ccccc1)C(=O)O` (stereo not given), in series [1], the LC retention time amounted to 3 min.
Take `CC(C(=O)O)C(=O)O`: the LC retention time in series [1] worked out at 0.733 min.
As for `NC(Cc1ccccc1)C(=O)NCC(=O)O` (stereo not given), the LC retention time in series [1] was determined as 1.7 min.
Same read-out and setting: under `CC(CCC(=O)NCC(=O)O)C1CCC2C3C(O)CC4CC(O)CCC4(C)C3CC(O)C12C` (stereo not given) stands 7.92 min; under `COc1cc(C=CCO)ccc1OC1OC(CO)C(O)C(O)C1O` (stereo not given), 3 min; under `Cc1cc2nc3c(=O)[nH]c(=O)nc-3n(CC(O)C(O)C(O)CO)c2cc1C` (stereo not given), 3.92 min.
On the same count and under the same terms, in the case of `CC12CCC(=O)C=C1CCC1C2C(=O)CC2(C)C1CCC2(O)C(=O)CO` (stereo not given) it was 6.61 min.
Still for that read-out and setting: in the case of `O=C(O)C1Cc2c([nH]c3ccccc23)CN1` (stereo not given) it was 3.1 min; in that of `COc1cc2ccc(=O)oc2cc1O`, 4.5 min; in that of `O=C(O)Cc1ccccc1`, 3.6 min.
Take `CCC(C)C(N)C(=O)NC(CC(C)C)C(=O)O` (stereo not given): in series [1], the LC retention time is 3.4 min.
Consider `NCC(=O)NC(Cc1ccccc1)C(=O)O` (stereo not given), for which the LC retention time in series [1] is 2.3 min.
The same measure, in the same setting: under `CC(C)CC(NC(=O)C(N)C(C)C)C(=O)O` (stereo not given) stands 2.7 min.
Turning to `CC(C)CC(N)C(=O)NC(Cc1ccc(O)cc1)C(=O)O` (stereo not given), the LC retention time in series [1] was 2.8 min.
Turning to `CCCCCCCCCCCCCCCC(=O)OCC(O)COP(=O)([O-])OCC[N+](C)(C)C` (stereo not given), the LC retention time in series [1] amounted to 11.6 min.
Same read-out and setting: in the case of `CCC(C)C(N)C(=O)O` (stereo not given) it was 0.795 min; in that of `O=C(O)c1c[nH]c2ccccc12`, 4.7 min.
The same measure, in the same setting: under `CCC(C)C(N)C(=O)NC(Cc1ccccc1)C(=O)O` (stereo not given) stands 3.9 min; under `CC(CCC(=O)O)C1CCC2C3C(O)CC4CC(O)CCC4(C)C3CCC12C` (stereo not given), 10.5 min.
On the same count and under the same terms, under `NC(N)=NCCCC(N)C(=O)O` (stereo not given) stands 0.413 min.
As for `Nc1ccc(C(=O)O)cc1`, the LC retention time in series [1] came to 1.95 min.
Take `CS(=O)CCCCCCCCN=C=S` (stereo not given): in series [1], the LC retention time turned out to be 8.1 min.
On the same count and under the same terms, under `COc1cc(C=CCO)cc(OC)c1OC1OC(CO)C(O)C(O)C1O` (stereo not given) stands 3.2 min; under `CC(CCC(=O)NCCS(=O)(=O)O)C1CCC2C3C(O)CC4CC(O)CCC4(C)C3CC(O)C12C` (stereo not given), 7.57 min; under `O=C(O)CCCC(=O)O`, 1.14 min.
For `O=C1CCC(C(=O)O)N1` (stereo not given), the LC retention time in series [1] turned out to be 0.687 min.
Still for that read-out and setting: in the case of `CCCCCCCCC=CCCCCCCCC(=O)OCC(O)COP(=O)(O)OCC[N+](C)(C)C` (stereo not given) it was 12 min.
